Measured values taken from PubChem BioAssay AID743502 (Broad Institute, 2014).
Activity calls are given as the source filed them.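 How the source made its calls: active means IC50 under 35 µM against the melanocortin-4 receptor MC4R counterscreen signal; inactive means IC50 above 35 µM.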

Tested on: HEK293 transfected MC4R, CRE-luciferase, beta-gal normalized
Assay: MC4R antagonists in CRE-luciferase reporter cells, dose response, counter-screen for LGR2 antagonist project, cell-based, HEK293, beta-gal normalized, luminescence, dry powder (AID 743502)

SMILES	IC50
C[C@H](CO)N1C[C@H](C)[C@H](CN(C)C(=O)Nc2cccc(F)c2)OCCCC[C@H](C)Oc2ccc(NC(=O)C3CCCCC3)cc2C1=O	> 35 µM (inactive)
C[C@H](CO)N1C[C@H](C)[C@H](CN(C)C(=O)Nc2cccc3ccccc23)OCCCC[C@H](C)Oc2ccc(NC(=O)C3CCCCC3)cc2C1=O	> 35 µM (inactive)
C[C@H](CO)N1C[C@H](C)[C@H](CN(C)C(=O)Nc2ccc(Cl)cc2)OCCCC[C@H](C)Oc2ccc(NC(=O)C3CCCCC3)cc2C1=O	> 35 µM (inactive)
Cc1ccc(NC(=O)N(C)C[C@@H]2OCCCC[C@H](C)Oc3ccc(NC(=O)C4CCCCC4)cc3C(=O)N([C@H](C)CO)C[C@@H]2C)cc1	> 35 µM (inactive)
C[C@H](CO)N1C[C@H](C)[C@H](CN(C)C(=O)Nc2ccc3ccccc3c2)OCCCC[C@H](C)Oc2ccc(NC(=O)C3CCCCC3)cc2C1=O	> 35 µM (inactive)
C[C@H]1CCCCO[C@@H](CN(C)C(=O)Nc2cccc3ccccc23)[C@@H](C)CN([C@@H](C)CO)C(=O)c2cc(NC(=O)C3CCCCC3)ccc2O1	> 35 µM (inactive)
C[C@H](CO)N1C[C@H](C)[C@H](CN(C)C(=O)Nc2ccc(F)cc2)OCCCC[C@H](C)Oc2ccc(NC(=O)C3CCCC3)cc2C1=O	> 35 µM (inactive)
C[C@@H]1CN([C@@H](C)CO)C(=O)c2cc(NC(=O)C3CCCCC3)ccc2O[C@@H](C)CCCCO[C@H]1CN(C)C(=O)Nc1cccc2ccccc12	> 35 µM (inactive)
C[C@H](CO)N1C[C@H](C)[C@H](CN(C)C(=O)Nc2ccccc2F)OCCCC[C@H](C)Oc2ccc(NC(=O)C3CCCCC3)cc2C1=O	> 35 µM (inactive)
C[C@H](CO)N1C[C@H](C)[C@H](CN(C)C(=O)Nc2ccc(F)cc2)OCCCC[C@H](C)Oc2ccc(NC(=O)C3CCCCCC3)cc2C1=O	> 35 µM (inactive)
